# According to ChEMBL document CHEMBL3745697, “Identification of azabenzimidazoles as potent JAK1 selective inhibitors” (Bioorg Med Chem Lett, 2016):
# Calls of active or inactive are those of the source. The calls are words filed in the database; no cut-off is given here.
# How the values were obtained:
# [1] = biological target: T1, Tyrosine-protein kinase JAK1 (Homo sapiens, UniProt P23458); test: Inhibition of N-terminal GST-fused human recombinant JAK1 (866 to 1154 residues) expressed in insect cells using FITC-C6-KKHTDDGYMPMSPGVA-NH2 as substrate by microfluidic capillary electrophoresis method
# T1 sequence (P23458 whole entry, the tested form may be a part): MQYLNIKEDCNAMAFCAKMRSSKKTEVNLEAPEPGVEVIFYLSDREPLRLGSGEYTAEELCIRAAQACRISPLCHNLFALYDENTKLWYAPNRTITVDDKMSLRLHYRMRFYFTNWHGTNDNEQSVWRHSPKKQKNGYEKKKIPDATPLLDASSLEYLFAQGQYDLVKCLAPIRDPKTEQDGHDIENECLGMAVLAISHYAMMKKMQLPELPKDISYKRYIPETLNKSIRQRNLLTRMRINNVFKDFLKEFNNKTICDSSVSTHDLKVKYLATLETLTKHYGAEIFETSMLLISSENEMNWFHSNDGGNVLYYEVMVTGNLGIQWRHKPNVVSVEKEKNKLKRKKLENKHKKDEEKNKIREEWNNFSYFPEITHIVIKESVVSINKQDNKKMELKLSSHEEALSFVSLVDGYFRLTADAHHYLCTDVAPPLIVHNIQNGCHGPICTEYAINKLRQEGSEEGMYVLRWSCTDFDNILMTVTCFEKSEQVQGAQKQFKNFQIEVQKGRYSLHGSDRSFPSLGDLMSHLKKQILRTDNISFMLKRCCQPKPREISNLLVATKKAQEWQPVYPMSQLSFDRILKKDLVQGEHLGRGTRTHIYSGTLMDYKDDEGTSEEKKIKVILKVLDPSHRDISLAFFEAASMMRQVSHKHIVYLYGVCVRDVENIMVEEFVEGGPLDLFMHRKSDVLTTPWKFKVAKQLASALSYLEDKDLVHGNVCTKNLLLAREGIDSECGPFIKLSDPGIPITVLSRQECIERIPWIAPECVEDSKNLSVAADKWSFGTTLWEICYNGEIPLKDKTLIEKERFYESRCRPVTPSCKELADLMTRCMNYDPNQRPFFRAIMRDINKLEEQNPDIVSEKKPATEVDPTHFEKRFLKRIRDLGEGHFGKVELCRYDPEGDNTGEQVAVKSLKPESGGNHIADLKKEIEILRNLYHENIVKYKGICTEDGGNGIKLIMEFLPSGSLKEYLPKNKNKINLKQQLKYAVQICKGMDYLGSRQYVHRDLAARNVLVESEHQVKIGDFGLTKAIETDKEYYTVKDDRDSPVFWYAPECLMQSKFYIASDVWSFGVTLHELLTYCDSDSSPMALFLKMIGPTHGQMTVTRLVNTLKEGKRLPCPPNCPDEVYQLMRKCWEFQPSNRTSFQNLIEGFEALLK
# Homo sapiens = organism: Homo sapiens; test: Selectivity ratio of IC50 for N-terminal GST-fused recombinant JAK2 (831 to 1132 residues) (unknown origin) to N-terminal GST-fused human recombinant JAK1 (866 to 1154 residues)
# [2] = biological target: T2, Tyrosine-protein kinase JAK3 (Homo sapiens, UniProt P52333); test: Inhibition of N-terminal GST-fused recombinant JAK3 (781 to 1124 residues) (unknown origin) expressed in insect cells using 5FAM-GEEPLYWSFPAKKK-NH2 as substrate by microfluidic capillary electrophoresis method
# T2 sequence (P52333 whole entry): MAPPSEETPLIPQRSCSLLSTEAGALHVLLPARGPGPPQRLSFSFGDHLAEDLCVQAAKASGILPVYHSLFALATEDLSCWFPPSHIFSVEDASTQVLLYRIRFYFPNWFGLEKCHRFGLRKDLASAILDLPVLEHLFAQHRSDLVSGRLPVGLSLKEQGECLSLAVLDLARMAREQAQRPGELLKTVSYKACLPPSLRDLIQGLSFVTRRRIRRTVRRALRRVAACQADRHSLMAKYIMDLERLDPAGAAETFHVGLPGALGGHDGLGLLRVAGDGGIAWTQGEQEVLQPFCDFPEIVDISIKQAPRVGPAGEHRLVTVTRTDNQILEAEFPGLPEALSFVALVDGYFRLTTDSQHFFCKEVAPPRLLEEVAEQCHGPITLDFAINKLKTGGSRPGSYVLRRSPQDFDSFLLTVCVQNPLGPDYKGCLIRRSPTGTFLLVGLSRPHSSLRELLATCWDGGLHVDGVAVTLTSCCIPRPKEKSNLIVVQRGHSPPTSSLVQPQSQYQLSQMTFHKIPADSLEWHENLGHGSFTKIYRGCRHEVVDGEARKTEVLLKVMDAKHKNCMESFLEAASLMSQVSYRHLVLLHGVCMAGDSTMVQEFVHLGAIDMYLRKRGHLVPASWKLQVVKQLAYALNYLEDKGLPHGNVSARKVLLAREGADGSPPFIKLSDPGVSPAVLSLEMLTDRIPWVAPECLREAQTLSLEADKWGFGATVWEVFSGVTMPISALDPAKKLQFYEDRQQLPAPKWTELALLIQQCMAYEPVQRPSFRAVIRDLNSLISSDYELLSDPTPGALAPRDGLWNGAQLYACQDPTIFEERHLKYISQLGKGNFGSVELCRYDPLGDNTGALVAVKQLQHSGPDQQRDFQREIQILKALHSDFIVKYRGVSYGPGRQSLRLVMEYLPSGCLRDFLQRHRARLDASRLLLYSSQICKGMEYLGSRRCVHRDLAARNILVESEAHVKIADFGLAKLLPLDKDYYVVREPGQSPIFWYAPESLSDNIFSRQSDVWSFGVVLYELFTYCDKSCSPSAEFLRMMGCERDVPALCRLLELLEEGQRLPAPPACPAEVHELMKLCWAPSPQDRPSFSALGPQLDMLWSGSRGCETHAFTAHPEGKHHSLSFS
# [3] = biological target: T3, Tyrosine-protein kinase JAK2 (Homo sapiens, UniProt O60674); test: Inhibition of N-terminal GST-fused recombinant JAK2 (831 to 1132 residues) (unknown origin) expressed in insect cells using 5FAM-GEEPLYWSFPAKKK-NH2 as substrate by microfluidic capillary electrophoresis method
# T3 sequence (O60674 whole entry, the tested form may be a part): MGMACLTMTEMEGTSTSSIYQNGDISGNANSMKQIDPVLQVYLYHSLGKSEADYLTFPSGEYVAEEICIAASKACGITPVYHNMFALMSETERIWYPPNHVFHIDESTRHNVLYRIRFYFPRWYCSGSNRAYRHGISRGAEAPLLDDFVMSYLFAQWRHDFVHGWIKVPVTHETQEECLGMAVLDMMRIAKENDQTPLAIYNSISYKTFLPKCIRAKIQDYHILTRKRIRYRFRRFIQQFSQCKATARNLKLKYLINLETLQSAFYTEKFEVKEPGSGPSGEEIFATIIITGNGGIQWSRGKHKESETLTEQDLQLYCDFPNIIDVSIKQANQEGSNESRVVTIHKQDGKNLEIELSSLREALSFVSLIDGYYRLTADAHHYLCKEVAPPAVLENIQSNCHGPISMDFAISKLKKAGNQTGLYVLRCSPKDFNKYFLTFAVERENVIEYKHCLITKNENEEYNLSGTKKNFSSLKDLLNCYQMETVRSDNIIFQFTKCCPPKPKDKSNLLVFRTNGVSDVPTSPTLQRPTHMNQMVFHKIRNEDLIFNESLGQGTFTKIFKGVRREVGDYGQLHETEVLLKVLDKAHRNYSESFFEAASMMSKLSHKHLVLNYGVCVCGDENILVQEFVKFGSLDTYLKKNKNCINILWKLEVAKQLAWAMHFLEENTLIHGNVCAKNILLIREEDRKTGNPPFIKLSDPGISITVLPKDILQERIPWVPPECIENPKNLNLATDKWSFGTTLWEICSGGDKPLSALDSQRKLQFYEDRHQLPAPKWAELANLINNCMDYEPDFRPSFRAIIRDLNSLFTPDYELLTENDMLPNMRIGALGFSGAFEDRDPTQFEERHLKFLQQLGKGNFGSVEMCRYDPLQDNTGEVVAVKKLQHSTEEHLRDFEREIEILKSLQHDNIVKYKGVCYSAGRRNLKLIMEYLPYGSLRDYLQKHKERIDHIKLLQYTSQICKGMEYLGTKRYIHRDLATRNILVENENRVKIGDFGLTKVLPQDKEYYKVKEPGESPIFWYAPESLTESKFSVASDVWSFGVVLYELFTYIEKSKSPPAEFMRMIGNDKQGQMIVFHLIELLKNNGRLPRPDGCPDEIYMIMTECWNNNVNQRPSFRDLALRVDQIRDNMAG
# [4] = biological target: T1, Tyrosine-protein kinase JAK1; test: Inhibition of JAK1 in human NCI-H1975 cells assessed as reduction in STAT3 phosphorylation after 2 hrs; type: cell-based
# [5] = Cell cycle arrest in human SW620 cells assessed as accumulation at Sub G1 phase at 10 uM after 24 hrs by propidium iodide staining-based flow cytometric analysis (reference value: 1.6%); type: functional; conditions: SW-620
# [6] = Cell cycle arrest in human SW620 cells assessed as accumulation at G1 phase at 1 uM after 24 hrs by propidium iodide staining-based flow cytometric analysis (reference value: 61.4%); type: functional; conditions: SW-620
# [7] = Cell cycle arrest in human SW620 cells assessed as multi-nuclear cells at 1 uM after 24 hrs by propidium iodide staining-based flow cytometric analysis (reference value: 5%); type: functional; conditions: SW-620
# [8] = Cell cycle arrest in human SW620 cells assessed as multi-nuclear cells at 10 uM after 24 hrs by propidium iodide staining-based flow cytometric analysis (reference value: 5%); type: functional; conditions: SW-620
# [9] = Cell cycle arrest in human SW620 cells assessed as accumulation at Sub G1 phase at 1 uM after 24 hrs by propidium iodide staining-based flow cytometric analysis (reference value: 1.6%); type: functional; conditions: SW-620
# [10] = Cell cycle arrest in human SW620 cells assessed as accumulation at S phase at 10 uM after 24 hrs by propidium iodide staining-based flow cytometric analysis (reference value: 13.9%); type: functional; conditions: SW-620
# [11] = Cell cycle arrest in human SW620 cells assessed as accumulation at G2/M phase at 1 uM after 24 hrs by propidium iodide staining-based flow cytometric analysis (reference value: 17.4%); type: functional; conditions: SW-620
# [12] = Cell cycle arrest in human SW620 cells assessed as accumulation at S phase at 1 uM after 24 hrs by propidium iodide staining-based flow cytometric analysis (reference value: 13.9%); type: functional; conditions: SW-620
# [13] = Cell cycle arrest in human SW620 cells assessed as accumulation at G1 phase at 10 uM after 24 hrs by propidium iodide staining-based flow cytometric analysis (reference value: 61.4%); type: functional; conditions: SW-620
# [14] = Cell cycle arrest in human SW620 cells assessed as accumulation at G2/M phase at 10 uM after 24 hrs by propidium iodide staining-based flow cytometric analysis (reference value: 17.4%); type: functional; conditions: SW-620
# [15] = biological target: T3, Tyrosine-protein kinase JAK2; test: Inhibition of JAK2 in human HEL 92.1.7 cells assessed as reduction in STAT5 phosphorylation after 2 hrs by Western blot analysis; type: cell-based
# [16] = biological target: T1, Tyrosine-protein kinase JAK1; test: Inhibition of JAK1 in human NCI-H1975 cells assessed as reduction in STAT3 phosphorylation at 0.003 to 3 uM after 2 hrs by Western blot analysis; type: cell-based
# Aurora kinase B = Aurora kinase B (Homo sapiens, UniProt Q96GD4); test: Inhibition of GST-INCENP activated N-terminal 6His-tagged human recombinant full length Aurora B (1 to 344 residues) expressed in baculovirus expression system using 5FAM-LRRASLG as substrate by microfluidic capillary electrophoresis method
# Aurora kinase B, sequence (Q96GD4 whole entry, the tested form may be a part): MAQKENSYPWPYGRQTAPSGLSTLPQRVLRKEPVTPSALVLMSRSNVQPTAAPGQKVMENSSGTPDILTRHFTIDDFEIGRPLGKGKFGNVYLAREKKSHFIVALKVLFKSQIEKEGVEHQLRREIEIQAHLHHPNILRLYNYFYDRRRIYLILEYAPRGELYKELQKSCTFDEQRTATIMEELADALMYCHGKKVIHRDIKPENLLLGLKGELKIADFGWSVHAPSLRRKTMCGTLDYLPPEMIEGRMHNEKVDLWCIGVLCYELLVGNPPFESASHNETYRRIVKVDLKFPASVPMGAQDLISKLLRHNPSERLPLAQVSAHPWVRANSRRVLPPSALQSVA
# [17] = biological target: Cyclin-dependent kinase 2/cyclin E1 (Homo sapiens, UniProt P24941); test: Inhibition of N-terminal 6His-tagged human recombinant full length CDK2 (1 to 304 residues)/Cyclin E1 (1 to 410 residues) expressed in insect cells using FL-Ahx-QSPKKG-CONH2 as substrate by microfluidic capillary electrophoresis method
# [18] = biological target: Non-receptor tyrosine-protein kinase TYK2 (Homo sapiens, UniProt P29597); test: Inhibition of N-terminal 6His-tagged human recombinant Tyk2
# Non-receptor tyrosine-protein kinase TYK2, sequence (P29597 whole entry): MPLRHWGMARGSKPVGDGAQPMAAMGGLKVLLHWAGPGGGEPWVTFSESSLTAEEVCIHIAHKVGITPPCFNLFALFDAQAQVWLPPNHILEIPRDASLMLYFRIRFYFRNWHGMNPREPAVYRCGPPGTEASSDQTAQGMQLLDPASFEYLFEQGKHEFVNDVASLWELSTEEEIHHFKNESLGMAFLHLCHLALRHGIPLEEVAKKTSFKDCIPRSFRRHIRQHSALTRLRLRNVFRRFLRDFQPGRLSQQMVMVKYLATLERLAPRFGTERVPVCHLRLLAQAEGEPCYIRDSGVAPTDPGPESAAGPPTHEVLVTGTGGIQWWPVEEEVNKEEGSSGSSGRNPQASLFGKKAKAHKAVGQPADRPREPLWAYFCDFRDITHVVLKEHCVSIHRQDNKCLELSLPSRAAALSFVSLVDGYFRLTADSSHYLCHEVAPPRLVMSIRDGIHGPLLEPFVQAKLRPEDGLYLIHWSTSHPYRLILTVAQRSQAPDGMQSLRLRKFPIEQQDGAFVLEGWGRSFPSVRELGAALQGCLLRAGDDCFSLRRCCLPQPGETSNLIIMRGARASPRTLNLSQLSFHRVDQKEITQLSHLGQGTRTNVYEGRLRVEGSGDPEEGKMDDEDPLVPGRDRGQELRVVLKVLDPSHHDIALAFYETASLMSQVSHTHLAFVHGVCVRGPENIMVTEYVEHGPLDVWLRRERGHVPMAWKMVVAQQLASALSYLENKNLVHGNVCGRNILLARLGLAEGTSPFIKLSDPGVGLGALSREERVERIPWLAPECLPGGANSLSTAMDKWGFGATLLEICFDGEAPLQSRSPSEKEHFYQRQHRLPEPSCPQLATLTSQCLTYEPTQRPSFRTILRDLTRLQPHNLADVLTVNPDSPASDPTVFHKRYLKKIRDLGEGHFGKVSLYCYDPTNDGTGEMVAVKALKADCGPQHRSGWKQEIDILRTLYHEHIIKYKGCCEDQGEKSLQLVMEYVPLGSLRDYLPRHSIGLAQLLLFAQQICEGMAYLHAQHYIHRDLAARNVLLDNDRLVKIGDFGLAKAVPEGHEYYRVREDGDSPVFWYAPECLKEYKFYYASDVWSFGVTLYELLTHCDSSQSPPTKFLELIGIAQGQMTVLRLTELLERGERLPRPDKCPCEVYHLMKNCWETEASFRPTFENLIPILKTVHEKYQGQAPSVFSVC
SMILES,IC50 [1] [nM],Ratio IC50 (Homo sapiens),IC50 [2] [nM],IC50 [3] [nM],also measured
COc1ccc(-c2nc3c(NCC4CCNC4)c(Cl)cnc3[nH]2)cc1 (stereo not given),199,70,> 22000,13900,–
CN1CCC(CNc2c(Cl)cnc3[nH]c(-c4cccc(S(C)(=O)=O)c4)nc23)CC1,4910,> 6,> 30000,> 30000,–
COc1ccc(-c2nc3c(NCC4CCNCC4)c(Cl)cnc3[nH]2)c(F)c1,106,110,6900,11800,IC50 [4]: 34 nM
CN1CCC(CNc2c(Cl)cnc3[nH]c(-c4cccc(F)c4)nc23)CC1,832,19,> 30000,16200,–
COc1ccc(-c2nc3c(NC4CCN(C(C)=O)CC4)c(Cl)cnc3[nH]2)cc1,> 30000,–,> 30000,> 30000,–
COc1ccc(-c2nc3c(N(C)CC4CCNCC4)c(Cl)cnc3[nH]2)cc1,872,> 34,> 30000,> 30000,–
Cc1cc(Nc2cc(N3CCN(C)CC3)nc(Sc3ccc(NC(=O)C4CC4)cc3)n2)n[nH]1,–,–,–,–,Activity [5]: 18.2%; Activity [6]: 2.6%; Activity [7]: 26.6%; Activity [8]: 15.5%; Activity [9]: 12.5%; Activity [10]: 1.6%; Activity [11]: 57.3%; Activity [12]: 0.9%; Activity [13]: 4.5%; Activity [14]: 60.3%
COc1ccccc1-c1nc2c(NCC3CCN(C)CC3)c(Cl)cnc2[nH]1,12200,2,> 30000,> 30000,–
CNc1c(Cl)cnc2[nH]c(-c3ccc(OC)cc3)nc12,> 30000,–,> 30000,> 30000,–
COc1ccc(-c2nc3c(NCC4CCNCC4)ccnc3[nH]2)cc1,> 30000,–,> 30000,> 30000,–
Cc1cc(Nc2nc(N[C@@H](C)c3ncc(F)cn3)ncc2Cl)[nH]n1,–,–,–,–,inhibition [15]: Active; inhibition [16]: Active
COCCNc1c(Cl)cnc2[nH]c(-c3ccc(OC)cc3)nc12,2100,> 14,> 30000,> 30000,–
COc1ccc(-c2nc3c(NCCO)c(Cl)cnc3[nH]2)cc1,5230,2,> 30000,> 30000,–
COc1ccc(-c2nc3c(OCC4CCNCC4)c(Cl)cnc3[nH]2)cc1,177,57,2780,10100,–
COc1ccc(-c2nc3c(NCC4CCNCC4)c(Cl)cnc3[nH]2)cc1OC,4.9,463,1200,2270,IC50 (Aurora kinase B): 16 nM; IC50 [17]: 57 nM; IC50 [4]: 87 nM; IC50 [18]: 1280 nM
COc1cc(F)c(-c2nc3c(NCC4CCNCC4)c(Cl)cnc3[nH]2)cc1F,173,> 99,7470,> 17000,IC50 [4]: 71 nM
COc1ccc(F)c(-c2nc3c(NCC4CCNCC4)c(Cl)cnc3[nH]2)c1,49,267,6140,13100,IC50 (Aurora kinase B): 157 nM; IC50 [17]: 76 nM; IC50 [4]: 76 nM; IC50 [18]: 11400 nM
COc1ccc(-c2nc3c(NCC4CCNCC4)c(Cl)cnc3[nH]2)c(C)c1,9,314,1540,2890,IC50 [4]: 37 nM
COc1ccc(-c2nc3c(NCC4CCCNC4)c(Cl)cnc3[nH]2)cc1 (stereo not given),138,22,5750,3040,–

# More lines, main results first:
IC50 [1] [nM],Ratio IC50 (Homo sapiens),IC50 [2] [nM],IC50 [3] [nM],SMILES,also measured
36,75,6600,2700,COc1ccc(-c2nc3c(NCC4CCN(C)CC4)c(Cl)cnc3[nH]2)c(C)c1,–
801,> 28,> 30000,> 22000,COCCN1CCC(CNc2c(Cl)cnc3[nH]c(-c4ccc(OC)cc4)nc23)CC1,–
356,8,27600,2780,CN1CCC(CNc2c(Cl)cnc3[nH]c(-c4ccc(S(C)(=O)=O)cc4)nc23)CC1,–
4510,> 6,> 30000,> 30000,COc1ccc(-c2nc3c(NCC4CCN(C)CC4)c(C#N)cnc3[nH]2)cc1,–
561,27,16900,14900,COc1ccc(-c2nc3c(NC4CCN(C)CC4)c(Cl)cnc3[nH]2)cc1,–
177,–,19200,–,COc1ccc(-c2nc3c(NCC4CCN(C)CC4)c(Br)cnc3[nH]2)cc1,–
17,85,1130,1450,COc1ccc(-c2nc3c(NCC4CCNCC4)c(Cl)cnc3[nH]2)cc1,IC50 [4]: 29 nM
317,30,> 30000,9620,COc1ccc(-c2nc3c(NCC4CCN(C)CC4)c(Cl)cnc3[nH]2)cc1,–
274,59,> 30000,16200,COc1cccc(-c2nc3c(NCC4CCN(C)CC4)c(Cl)cnc3[nH]2)c1,–
275,> 109,> 30000,> 30000,COc1ccc(F)c(-c2nc3c(NCC4CCN(C)CC4)c(Cl)cnc3[nH]2)c1,–
977,10,4500,10300,COc1ccc(-c2nc3c(NCC4CCN(C)CC4)c(C(N)=O)cnc3[nH]2)cc1,–
73,137,> 30000,9900,COc1ccc(-c2nc3c(NCC4CCN(C)CC4)c(Cl)cnc3[nH]2)cc1OC,–
